Results from patent publication US7759345B2, “Antitumoral derivatives of ET-743” (priority 2001, dated 2010).

Tests used:
K-562 = assay: Inhibition of cells growth by colorimetric assay (SRB), K-562; assay type: cell-based; conditions: SRB, 48 hours exposure; for GI50 / LC50 (50% cell killing): Homo sapiens, K562, 48 h; for GI50 / TGI K-562: K-562; for GI50: read-out: GI50 K-562; for LC50 (50% cell killing): read-out: LC50 K-562, K-562
Method in brief: (§1)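 5×10^3 cells/well; 18 h attach; compound 10–10^−8 μg/ml in DMSO/EtOH/PBS (0.5:0.5:99), 48 h, 37 °C, 5% CO2; cold 50% TCA fix 60 min 4 °C; 0.4% SRB 10 min RT; Tris solubilization; OD 490 nm; triplicates.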

A-549 = assay: Inhibition of cells growth by colorimetric assay (SRB), A-549; assay type: cell-based; conditions: SRB, 48 hours exposure; for GI50 / LC50 (concentration for 50% cell killing): Homo sapiens, A549, 48 h; for TGI A-549 / GI50: A-549; for GI50: read-out: GI50 A-549; for LC50 (concentration for 50% cell killing): read-out: LC50 A-549, A-549
Method in brief: as §1

SK-MEL-28 = assay: Inhibition of cells growth by colorimetric assay (SRB), SK-MEL-28; assay type: cell-based; conditions: SRB, 48 hours exposure; for GI50 / CC50: Homo sapiens, SK-MEL-28, 48 h; for GI50 / TGI MEL-28: MEL-28; for GI50: read-out: GI50 MEL-28; for CC50: read-out: LC50 MEL-28, MEL-28
Method in brief: as §1

HT-29 = assay: Inhibition of cells growth by colorimetric assay (SRB), HT-29; assay type: cell-based; conditions: SRB, 48 hours exposure; for GI50 / LC50 (concentration for 50% cell killing): Homo sapiens, HT-29, 48 h; for TGI HT-29 / GI50: HT-29; for GI50: read-out: GI50 HT-29; for LC50 (concentration for 50% cell killing): read-out: LC50 HT-29, HT-29
Method in brief: as §1

LoVo = assay: Inhibition of cells growth by colorimetric assay (SRB), LoVo; assay type: cell-based; conditions: SRB, 48 hours exposure; for GI50 / LC50 (concentration for 50% cell killing): Homo sapiens, LoVo, 48 h; for GI50 / TGI LOVO: LOVO; for GI50: read-out: GI50 LOVO; for LC50 (concentration for 50% cell killing): read-out: LC50 LOVO, LOVO
Method in brief: as §1

LoVo-Dox = assay: Inhibition of cells growth by colorimetric assay (SRB), LoVo-Dox; assay type: cell-based; conditions: SRB, 48 hours exposure; for GI50 / CC50: Homo sapiens, 48 h; for GI50 / TGI LOVO-DOX: LOVO-DOX; for GI50: read-out: GI50 LOVO-DOX; for CC50: read-out: LC50 LOVO-DOX, LOVO-DOX
Method in brief: as §1

DU-145 = assay: Inhibition of cells growth by colorimetric assay (SRB), DU-145; assay type: cell-based; conditions: SRB, 48 hours exposure; for GI50 / CC50: Homo sapiens, DU-145, 48 h; for TGI DU-145 / GI50: DU-145; for GI50: read-out: GI50 DU-145; for CC50: read-out: LC50 DU-145, DU-145
Method in brief: as §1

LNCaP = assay: Inhibition of cells growth by colorimetric assay (SRB), LNCaP; assay type: cell-based; conditions: SRB, 48 hours exposure; for CC50 / GI50: Homo sapiens; for CC50: LNCaP, 48 h, read-out: LC50 LNCAP, LNCAP; for GI50 / TGI LNCAP: LNCAP; for GI50: read-out: GI50 LNCAP
Method in brief: as §1

SK-BR-3 = assay: Inhibition of cells growth by colorimetric assay (SRB), SK-BR-3; assay type: cell-based; conditions: SRB, 48 hours exposure; for GI50 / CC50: Homo sapiens, SK-BR-3, 48 h; for GI50 / TGI SK-BR3: SK-BR3; for GI50: read-out: GI50 SK-BR3; for CC50: read-out: LC50 SK-BR3, SK-BR3
Method in brief: as §1

IGROV-1 = assay: Inhibition of cells growth by colorimetric assay (SRB), IGROV-1; assay type: cell-based; conditions: SRB, 48 hours exposure; for GI50 / CC50: Homo sapiens, IGROV-1, 48 h; for GI50 / TGI IGROV: IGROV; for GI50: read-out: GI50 IGROV; for CC50: read-out: LC50 IGROV, IGROV
Method in brief: as §1

IGROV-ET = assay: Inhibition of cells growth by colorimetric assay (SRB), IGROV-ET; assay type: cell-based; conditions: SRB, 48 hours exposure; for GI50 / CC50: Homo sapiens, 48 h; for GI50 / TGI IGROV-ET: IGROV-ET; for GI50: read-out: GI50 IGROV-ET; for CC50: read-out: LC50 IGROV-ET, IGROV-ET
Method in brief: as §1

SK-OV-3 = assay: Inhibition of cells growth by colorimetric assay (SRB), SK-OV-3; assay type: cell-based; conditions: SRB, 48 hours exposure; for GI50 / LC50: Homo sapiens, SK-OV-3, 48 h; for GI50 / TGI SK-OV3: SK-OV3; for GI50: read-out: GI50 SK-OV3; for LC50: read-out: LC50 SK-OV3, SK-OV3
Method in brief: as §1

PANC-1 = assay: Inhibition of cells growth by colorimetric assay (SRB), PANC-1; assay type: cell-based; conditions: SRB, 48 hours exposure; for GI50 / LC50 (concentration for 50% net cell kill): Homo sapiens, PANC-1, 48 h; for GI50 / TGI PANC-1: PANC-1; for GI50: read-out: GI50 PANC-1; for LC50 (concentration for 50% net cell kill): read-out: LC50 PANC-1, PANC-1
Method in brief: as §1

HMEC1 = assay: Inhibition of cells growth by colorimetric assay (SRB), HMEC1; assay type: cell-based; conditions: SRB, 48 hours exposure; for GI50 / LC50: Homo sapiens, HMEC-1, 48 h; for TGI HMEC-1 / GI50: HMEC-1; for GI50: read-out: GI50 HMEC-1; for LC50: read-out: LC50 HMEC-1, HMEC-1
Method in brief: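 Growth inhibition is measured by sulforhodamine B staining of TCA-fixed cells after 48 h of compound exposure across 10 to 10^−8 μg/ml. Cells are seeded at 5×10^3 per well and grown drug-free for 18 h beforehand; absorbance at 490 nm yields GI, TGI and LC values.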

Excerpt for Heart: (§2) Toxicity was asssessed by the methods reported in Toxicology in Vitro, 15 (2001) 571-577, J. Luber Narod et al.: “Evaluation of the use of in vitro methodolodies as tools for screening new compounds for potential in vivo toxicity”.
Excerpt for Kidney: as §2
Excerpt for Liver: as §2
Excerpt for Myelo: as §2
Excerpt for Skeletal: as §2

In the case of `COc1cc2c(cc1OC)[C@@]1(CS[C@@H]3c4c(OC(C)=O)c(C)c5c(c4[C@H](COC1=O)N1C3[C@H]3c4c(cc(C)c(OC)c4O)C[C@@H]([C@@H]1O)N3C)OCO5)NCC2` (stereo partly shown) [Compound 67], the GI50 (K-562) is reported as 0.118 nM, the LC50 (50% cell killing) (K-562) is reported as 0.8 nM and the “TGI K-562” value (K-562) is reported as 2.85E-10. For the same compound, the “TGI A-549” value (A-549) was 3.63E-09, the GI50 (A-549) was 1.31 nM and the LC50 (concentration for 50% cell killing) (A-549) was 10.1 nM. For the same compound, the GI50 (SK-MEL-28) was 0.411 nM, the CC50 (SK-MEL-28) was 6.24 nM and the “TGI MEL-28” value (SK-MEL-28) was 9.90E-10. The “TGI HT-29” value (HT-29) was 5.59E-09, the GI50 (HT-29) was 0.741 nM and the LC50 (concentration for 50% cell killing) (HT-29) was 12900 nM. The GI50 (LoVo) was 0.602 nM, the LC50 (concentration for 50% cell killing) (LoVo) was 17.7 nM and the “TGI LOVO” value (LoVo) was 3.34E-09. For the same compound, the GI50 (LoVo-Dox) was 4.21 nM, the CC50 (LoVo-Dox) was 12800 nM and the “TGI LOVO-DOX” value (LoVo-Dox) was 3.65E-08. The “TGI DU-145” value (DU-145) was 8.61E-10, the GI50 (DU-145) was 0.433 nM and the CC50 (DU-145) was 4470 nM. The CC50 (LNCaP) was 0.844 nM, the GI50 (LNCaP) was 0.307 nM and the “TGI LNCAP” value (LNCaP) was 5.09E-10. The GI50 (SK-BR-3) was 0.394 nM, the CC50 (SK-BR-3) was 7.48 nM and the “TGI SK-BR3” value (SK-BR-3) was 1.11E-09. The GI50 (IGROV-1) was 0.266 nM, the CC50 (IGROV-1) was 1.21 nM and the “TGI IGROV” value (IGROV-1) was 5.67E-10. The GI50 (IGROV-ET) was 1.88 nM, the CC50 (IGROV-ET) was 4960 nM and the “TGI IGROV-ET” value (IGROV-ET) was 7.02E-09. The GI50 (SK-OV-3) was 0.385 nM, the LC50 (SK-OV-3) was 7940 nM and the “TGI SK-OV3” value (SK-OV-3) was 8.52E-10. The GI50 (PANC-1) was 0.443 nM, the LC50 (concentration for 50% net cell kill) (PANC-1) was 2670 nM and the “TGI PANC-1” value (PANC-1) was 1.09E-09. For the same compound, the “TGI HMEC-1” value (HMEC1) was 8.49E-09, the GI50 (HMEC1) was 1.02 nM and the LC50 (HMEC1) was 5050 nM. For the same compound, the “Toxicity Data Liver” value (Liver) was 3.20E-08, the “Toxicity Data Heart” value (Heart) was 4.54E-08 and the “Toxicity Data Myelo” value (Myelo) was 3.27E-08. The “Toxicity Data Skeletal” value (Skeletal) was 2.37E-08 and the “Toxicity Data Kidney” value (Kidney) was 5.36E-08.

`COc1cc2c(cc1OC(=O)c1cc3ccccc3oc1=O)CCN[C@]21CS[C@@H]2c3c(OC(C)=O)c(C)c4c(c3[C@H](COC1=O)N1C2[C@H]2c3c(cc(C)c(OC)c3O)C[C@@H]([C@@H]1O)N2C)OCO4` (stereo partly shown) [Compound 76] was tested, and the GI50 (K-562) was 0.00278 nM, the LC50 (50% cell killing) (K-562) was 0.351 nM and the “TGI K-562” value (K-562) was 3.78E-11. The “TGI A-549” value (A-549) was 4.31E-09, the GI50 (A-549) was 2.06 nM and the LC50 (concentration for 50% cell killing) (A-549) was 9.07 nM. For the same compound, the GI50 (SK-MEL-28) was 0.622 nM, the CC50 (SK-MEL-28) was 8.28 nM and the “TGI MEL-28” value (SK-MEL-28) was 2.51E-09. The “TGI HT-29” value (HT-29) was 6.18E-09, the GI50 (HT-29) was 1.28 nM and the LC50 (concentration for 50% cell killing) (HT-29) was 4520 nM. For the same compound, the GI50 (LoVo) was 1.03 nM, the LC50 (concentration for 50% cell killing) (LoVo) was 10.8 nM and the “TGI LOVO” value (LoVo) was 3.30E-09. The GI50 (LoVo-Dox) was 13.9 nM, the CC50 (LoVo-Dox) was 107 nM and the “TGI LOVO-DOX” value (LoVo-Dox) was 4.70E-08. The “TGI DU-145” value (DU-145) was 6.16E-10, the GI50 (DU-145) was 0.249 nM and the CC50 (DU-145) was 2140 nM. For the same compound, the CC50 (LNCaP) was 0.891 nM, the GI50 (LNCaP) was 0.217 nM and the “TGI LNCAP” value (LNCaP) was 4.40E-10. For the same compound, the GI50 (SK-BR-3) was 0.337 nM, the CC50 (SK-BR-3) was 6.17 nM and the “TGI SK-BR3” value (SK-BR-3) was 1.24E-09. For the same compound, the GI50 (IGROV-1) was 0.192 nM, the CC50 (IGROV-1) was 1.66 nM and the “TGI IGROV” value (IGROV-1) was 4.56E-10. The GI50 (IGROV-ET) was 1.52 nM, the CC50 (IGROV-ET) was 21 nM and the “TGI IGROV-ET” value (IGROV-ET) was 3.92E-09. The GI50 (SK-OV-3) was 0.293 nM, the LC50 (SK-OV-3) was 4810 nM and the “TGI SK-OV3” value (SK-OV-3) was 8.93E-10. The GI50 (PANC-1) was 1.22 nM, the LC50 (concentration for 50% net cell kill) (PANC-1) was 44.1 nM and the “TGI PANC-1” value (PANC-1) was 4.68E-09. For the same compound, the “TGI HMEC-1” value (HMEC1) was 6.55E-09, the GI50 (HMEC1) was 1.83 nM and the LC50 (HMEC1) was 186 nM. The “Toxicity Data Liver” value (Liver) was 1.35E-08, the “Toxicity Data Heart” value (Heart) was 1.62E-08 and the “Toxicity Data Myelo” value (Myelo) was 8.19E-09. The “Toxicity Data Skeletal” value (Skeletal) was 2.15E-09 and the “Toxicity Data Kidney” value (Kidney) was 3.20E-09.
